Source: PMC5218480 (PLoS ONE, 2017)

Tested on: MV-4-11 cells
Assay: Gene expression microarray analysis (Affymetrix PrimeView) and GSEA
Format: cell-based, human
Design: RFU PODN (11730768_x_at) / Fold change /veh PODN (11730768_x_at) / RFU LINC00158 (11744669_a_at) / Fold change /veh LINC00158 (11744669_a_at) / RFU DUSP10 (11751237_a_at) / Fold change /veh DUSP10 (11751237_a_at) / RFU ID3 (11757404_x_at) / Fold change /veh ID3 (11757404_x_at) / RFU PLEKHG5 (11737974_s_at) / Fold change /veh PLEKHG5 (11737974_s_at) / RFU LRRC4B (11730491_at) / Fold change /veh LRRC4B (11730491_at) / RFU GIMAP4 (11747438_a_at) / Fold change /veh GIMAP4 (11747438_a_at) / RFU KRT8 (11758183_x_at) / Fold change /veh KRT8 (11758183_x_at) / RFU CNN1 (11734310_a_at) / Fold change /veh CNN1 (11734310_a_at) / RFU VPS37D (11726825_at) / Fold change /veh VPS37D (11726825_at) / RFU C10orf10 (11716522_x_at) / Fold change /veh C10orf10 (11716522_x_at) / RFU KIR2DL2 /// KIR2DL4 /// KIR2DL5A /// KIR2DL5B /// KIR2DS1 /// KIR2DS2 /// KIR2DS3 /// KIR2DS4 /// KIR3DL3 /// KIR3DL3 /// KIR3DS1 (11738374_at) / Fold change /veh KIR2DL2 /// KIR2DL4 /// KIR2DL5A /// KIR2DL5B /// KIR2DS1 /// KIR2DS2 /// KIR2DS3 /// KIR2DS4 /// KIR3DL3 /// KIR3DL3 /// KIR3DS1 (11738374_at) / RFU C1QL1 (11718748_at) / Fold change /veh C1QL1 (11718748_at) / RFU TMPRSS4 (11747572_a_at) / Fold change /veh TMPRSS4 (11747572_a_at) / RFU HAMP (11756126_x_at) / Fold change /veh HAMP (11756126_x_at) / RFU RNFT2 (11725882_a_at) / Fold change /veh RNFT2 (11725882_a_at) / RFU NR4A2 (11747474_a_at) / Fold change /veh NR4A2 (11747474_a_at) / RFU ABCC12 (11746883_a_at) / Fold change /veh ABCC12 (11746883_a_at) / RFU TMEM136 (11760407_x_at) / Fold change /veh TMEM136 (11760407_x_at) / RFU CLDN22 /// WWC2 (11732394_at) / Fold change /veh CLDN22 /// WWC2 (11732394_at) / RFU HLA-DPB1 (11760878_x_at) / Fold change /veh HLA-DPB1 (11760878_x_at) / RFU SPINT1 (11716480_a_at) / Fold change /veh SPINT1 (11716480_a_at) / RFU GAP43 (11754022_s_at) / Fold change /veh GAP43 (11754022_s_at) / RFU A4GNT (11735810_at) / Fold change /veh A4GNT (11735810_at) / RFU PRB3 (11715151_x_at) / Fold change /veh PRB3 (11715151_x_at) / RFU TUBB4B (11761932_at) / Fold change /veh TUBB4B (11761932_at) / RFU CAPN14 (11732068_a_at) / Fold change /veh CAPN14 (11732068_a_at) / RFU TMCC2 (11721928_a_at) / Fold change /veh TMCC2 (11721928_a_at) / RFU IRGQ (11745062_a_at) / Fold change /veh IRGQ (11745062_a_at) / RFU FAM174B (11720279_a_at) / Fold change /veh FAM174B (11720279_a_at) / RFU TMPRSS4 (11748680_a_at) / Fold change /veh TMPRSS4 (11748680_a_at) / RFU FAM212B (11763350_a_at) / Fold change /veh FAM212B (11763350_a_at) / RFU PLEKHG5 (11743358_a_at) / Fold change /veh PLEKHG5 (11743358_a_at) / RFU ZSCAN30 (11745921_a_at) / Fold change /veh ZSCAN30 (11745921_a_at) / RFU CMKLR1 (11741424_a_at) / Fold change /veh CMKLR1 (11741424_a_at) / RFU LOC101060620 /// MAPK8IP1 (11723275_at) / Fold change /veh LOC101060620 /// MAPK8IP1 (11723275_at) / RFU SPTSSB (11747773_x_at) / Fold change /veh SPTSSB (11747773_x_at) / RFU PRSS12 (11739890_at) / Fold change /veh PRSS12 (11739890_at) / RFU BIN1 (11741810_x_at) / Fold change /veh BIN1 (11741810_x_at) / RFU WNT11 (11732464_a_at) / Fold change /veh WNT11 (11732464_a_at) / RFU C10orf10 (11716521_a_at) / Fold change /veh C10orf10 (11716521_a_at) / RFU C5orf56 (11738089_at) / Fold change /veh C5orf56 (11738089_at) / RFU CYB561 (11721691_x_at) / Fold change /veh CYB561 (11721691_x_at) / RFU ANKRD19P (11752326_a_at) / Fold change /veh ANKRD19P (11752326_a_at) / RFU OR2T12 /// OR2T33 /// OR2T8 (11738714_s_at) / Fold change /veh OR2T12 /// OR2T33 /// OR2T8 (11738714_s_at) / RFU VCAN (11748164_a_at) / Fold change /veh VCAN (11748164_a_at) / RFU JSRP1 (11732532_at) / Fold change /veh JSRP1 (11732532_at) / RFU KRTAP10-11 (11738290_x_at) / Fold change /veh KRTAP10-11 (11738290_x_at) / RFU MYO3A (11730013_a_at) / Fold change /veh MYO3A (11730013_a_at) / RFU EBF3 (11725865_a_at) / Fold change /veh EBF3 (11725865_a_at) / RFU CAMK2N1 (11719241_x_at) / Fold change /veh CAMK2N1 (11719241_x_at) / RFU C5orf56 (11738088_a_at) / Fold change /veh C5orf56 (11738088_a_at) / RFU OLFML3 (11715873_a_at) / Fold change /veh OLFML3 (11715873_a_at) / RFU LOC100653217 /// NTM (11731650_a_at) / Fold change /veh LOC100653217 /// NTM (11731650_a_at) / RFU MAPK11 (11762145_a_at) / Fold change /veh MAPK11 (11762145_a_at) / RFU FIZ1 (11724087_x_at) / Fold change /veh FIZ1 (11724087_x_at) / RFU OASL (11726364_x_at) / Fold change /veh OASL (11726364_x_at) / RFU SOX15 (11748057_x_at) / Fold change /veh SOX15 (11748057_x_at) / RFU CD79A (11719716_a_at) / Fold change /veh CD79A (11719716_a_at) / RFU HIST1H1D (11736915_at) / Fold change /veh HIST1H1D (11736915_at) / RFU CASKIN2 (11723855_a_at) / Fold change /veh CASKIN2 (11723855_a_at) / RFU LOC730098 (11760151_x_at) / Fold change /veh LOC730098 (11760151_x_at) / RFU OR4N2 (11742367_at) / Fold change /veh OR4N2 (11742367_at) / RFU PRRT2 (11749266_a_at) / Fold change /veh PRRT2 (11749266_a_at) / RFU SNX32 (11753110_a_at) / Fold change /veh SNX32 (11753110_a_at) / RFU CDHR5 (11726645_a_at) / Fold change /veh CDHR5 (11726645_a_at) / RFU RCAN1 (11760418_a_at) / Fold change /veh RCAN1 (11760418_a_at) / RFU FAM167A (11723789_a_at) / Fold change /veh FAM167A (11723789_a_at) / RFU FAM26E (11764081_at) / Fold change /veh FAM26E (11764081_at) / RFU ISYNA1 (11749810_s_at) / Fold change /veh ISYNA1 (11749810_s_at) / RFU ACY1 (11761880_at) / Fold change /veh ACY1 (11761880_at) / RFU 11764098_at / Fold change /veh 11764098_at / RFU SAMD14 (11745864_x_at) / Fold change /veh SAMD14 (11745864_x_at) / RFU NPB (11741838_a_at) / Fold change /veh NPB (11741838_a_at) / RFU TMPRSS6 (11731388_a_at) / Fold change /veh TMPRSS6 (11731388_a_at) / RFU KRTAP10-2 (11738614_at) / Fold change /veh KRTAP10-2 (11738614_at) / RFU ARHGAP8 /// PRR5-ARHGAP8 (11727945_x_at) / Fold change /veh ARHGAP8 /// PRR5-ARHGAP8 (11727945_x_at) / RFU KRTAP5-7 /// NADSYN1 (11734609_at) / Fold change /veh KRTAP5-7 /// NADSYN1 (11734609_at) / RFU RASL12 (11751679_a_at) / Fold change /veh RASL12 (11751679_a_at) / RFU CDKN2B (11736163_a_at) / Fold change /veh CDKN2B (11736163_a_at) / RFU PRF1 (11729649_at) / Fold change /veh PRF1 (11729649_at) / RFU, ZNF638 /// ZNF638-IT1 / Fold change vs veh, ZNF638 /// ZNF638-IT1 / RFU, PANK3 / Fold change vs veh, PANK3 / RFU, SH3YL1 / Fold change vs veh, SH3YL1 / RFU, ZEB2 / Fold change vs veh, ZEB2 / RFU, NRIP1 / Fold change vs veh, NRIP1 / RFU, PTTG1IP / Fold change vs veh, PTTG1IP / RFU, CAPN2 / Fold change vs veh, CAPN2 / RFU, MED14 / Fold change vs veh, MED14 / RFU, SNORA58 / Fold change vs veh, SNORA58 / RFU, C1orf63 / Fold change vs veh, C1orf63 / RFU, LRRFIP1 / Fold change vs veh, LRRFIP1 / RFU, NDUFAF7 / Fold change vs veh, NDUFAF7 / RFU, SLC12A2 / Fold change vs veh, SLC12A2 / RFU, IBTK / Fold change vs veh, IBTK / RFU, ESF1 / Fold change vs veh, ESF1 / Fold change vs veh, TMEM50B / RFU, TAOK1 / Fold change vs veh, TAOK1 / RFU, ACBD3 / Fold change vs veh, ACBD3 / RFU, TMA16 / Fold change vs veh, TMA16 / RFU, RWDD3 / Fold change vs veh, RWDD3 / RFU, BCAT1 / Fold change vs veh, BCAT1 / RFU, EDEM3 / Fold change vs veh, EDEM3 / RFU, TMEM33 / Fold change vs veh, TMEM33 / RFU, WDR75 / Fold change vs veh, WDR75 / RFU, AHCTF1 / Fold change vs veh, AHCTF1 / RFU, TFRC / Fold change vs veh, TFRC / RFU, ZDHHC17 / Fold change vs veh, ZDHHC17 / RFU, NOM1 / Fold change vs veh, NOM1 / RFU, ARL8B / Fold change vs veh, ARL8B / RFU, ZBTB11 / Fold change vs veh, ZBTB11 / RFU, TAMM41 / Fold change vs veh, TAMM41 / RFU, KIAA1704 /// LOC100996395 / Fold change vs veh, KIAA1704 /// LOC100996395 / RFU, ING1 / Fold change vs veh, ING1 / RFU, TRMT61B / Fold change vs veh, TRMT61B / RFU, FUBP3 / Fold change vs veh, FUBP3 / RFU, TP53 / Fold change vs veh, TP53 / RFU, TNKS2 / Fold change vs veh, TNKS2 / RFU, ZFP14 / Fold change vs veh, ZFP14 / RFU, ACTR2 / Fold change vs veh, ACTR2 / RFU, PPP3R1 / Fold change vs veh, PPP3R1 / RFU, PIK3R1 / Fold change vs veh, PIK3R1 / RFU, HNRNPA1 / Fold change vs veh, HNRNPA1 / RFU, RNF170 / Fold change vs veh, RNF170 / RFU, ZNF28 / Fold change vs veh, ZNF28 / RFU, RNGTT / Fold change vs veh, RNGTT / RFU, OGT / Fold change vs veh, OGT / RFU, BRD1 / Fold change vs veh, BRD1 / RFU, MARS / Fold change vs veh, MARS / RFU, ZNF655 / Fold change vs veh, ZNF655 / RFU, FAHD1 / Fold change vs veh, FAHD1 / RFU, BDP1 / Fold change vs veh, BDP1 / RFU, LRRCC1 / Fold change vs veh, LRRCC1 / RFU, ARID1A / Fold change vs veh, ARID1A / RFU, ZNF146 / Fold change vs veh, ZNF146 / RFU, ZNF330 / Fold change vs veh, ZNF330 / RFU, GPN3 / Fold change vs veh, GPN3 / RFU, C9orf123 / Fold change vs veh, C9orf123 / RFU, N4BP2L2 / Fold change vs veh, N4BP2L2 / RFU, ARFIP1 / Fold change vs veh, ARFIP1 / RFU, FAM179B / Fold change vs veh, FAM179B / RFU, BCL10 / Fold change vs veh, BCL10 / RFU, UHRF1BP1L / Fold change vs veh, UHRF1BP1L / RFU, BET1 / Fold change vs veh, BET1 / RFU, CNOT2 / Fold change vs veh, CNOT2 / RFU, ZNF268 / Fold change vs veh, ZNF268 / Fold change vs veh, ZNF507 / RFU, DGCR2 / Fold change vs veh, DGCR2 / RFU, WDSUB1 / Fold change vs veh, WDSUB1 / Fold change vs veh, HSP90B1 /// MIR3652 / RFU, ADSS / Fold change vs veh, ADSS / RFU, GK / Fold change vs veh, GK / RFU, ZNF148 / Fold change vs veh, ZNF148 / RFU, TAF9 / Fold change vs veh, TAF9 / RFU, SLC1A5 / Fold change vs veh, SLC1A5 / RFU, SLMO2 / Fold change vs veh, SLMO2 / RFU, ABCC4 / Fold change vs veh, ABCC4 / RFU, LOC101060439 /// RAP1B / Fold change vs veh, LOC101060439 /// RAP1B / RFU, RFX7 / Fold change vs veh, RFX7 / RFU, GTPBP10 / Fold change vs veh, GTPBP10 / RFU, CNEP1R1 / Fold change vs veh, CNEP1R1 / RFU, BIVM-ERCC5 /// ERCC5 / Fold change vs veh, BIVM-ERCC5 /// ERCC5 / RFU, ILF3 / Fold change vs veh, ILF3 / RFU 11762660_at / Fold change /veh 11762660_at / RFU VCAN (11757783_s_at) / Fold change /veh VCAN (11757783_s_at) / RFU DDX43 (11728927_at) / Fold change /veh DDX43 (11728927_at) / RFU KRT8 (11758188_x_at) / Fold change /veh KRT8 (11758188_x_at) / RFU NKD1 (11759106_at) / Fold change /veh NKD1 (11759106_at) / RFU SRD5A1 (11742802_a_at) / Fold change /veh SRD5A1 (11742802_a_at) / RFU TPSAB1 /// TPSB2 (11721975_s_at) / Fold change /veh TPSAB1 /// TPSB2 (11721975_s_at) / RFU GSTM3 (11746129_a_at) / Fold change /veh GSTM3 (11746129_a_at) / RFU IL23R (11737362_x_at) / Fold change /veh IL23R (11737362_x_at) / RFU TMEM51 (11727254_a_at) / Fold change /veh TMEM51 (11727254_a_at) / RFU PIWIL2 (11732686_x_at) / Fold change /veh PIWIL2 (11732686_x_at) / RFU ORM1 (11744905_x_at) / Fold change /veh ORM1 (11744905_x_at) / RFU CCDC152 (11743942_at) / Fold change /veh CCDC152 (11743942_at) / RFU ECM1 (11717891_a_at) / Fold change /veh ECM1 (11717891_a_at) / RFU IL23R (11748794_a_at) / Fold change /veh IL23R (11748794_a_at) / RFU TNFAIP8L3 (11732012_x_at) / Fold change /veh TNFAIP8L3 (11732012_x_at) / RFU MBOAT4 (11741988_at) / Fold change /veh MBOAT4 (11741988_at) / RFU 11764193_at / Fold change /veh 11764193_at / RFU TMEM53 (11763286_at) / Fold change /veh TMEM53 (11763286_at) / RFU MAGEB2 (11727129_at) / Fold change /veh MAGEB2 (11727129_at) / RFU TMEM200A (11744735_a_at) / Fold change /veh TMEM200A (11744735_a_at) / RFU CCDC152 (11751479_a_at) / Fold change /veh CCDC152 (11751479_a_at) / RFU FAM211A (11726209_a_at) / Fold change /veh FAM211A (11726209_a_at) / RFU RGS16 (11746705_a_at) / Fold change /veh RGS16 (11746705_a_at) / RFU VCAN (11755009_s_at) / Fold change /veh VCAN (11755009_s_at) / RFU RHOB (11743442_s_at) / Fold change /veh RHOB (11743442_s_at) / RFU RGS16 (11720943_a_at) / Fold change /veh RGS16 (11720943_a_at) / RFU RGS16 (11720944_at) / Fold change /veh RGS16 (11720944_at) / RFU, VPS4B / Fold change vs veh, VPS4B / RFU, CREB1 / Fold change vs veh, CREB1 / RFU, DNAJC13 / Fold change vs veh, DNAJC13 / RFU, GNAQ / Fold change vs veh, GNAQ / RFU, CDK5R1 / Fold change vs veh, CDK5R1 / RFU, ZRANB3 / Fold change vs veh, ZRANB3 / RFU, CUL4A / Fold change vs veh, CUL4A / RFU, CCNY / Fold change vs veh, CCNY / RFU, UFL1 / Fold change vs veh, UFL1 / RFU, COG3 / Fold change vs veh, COG3 / RFU, DIAPH2 / Fold change vs veh, DIAPH2 / RFU, SKA2 / Fold change vs veh, SKA2 / RFU, AFF3 / Fold change vs veh, AFF3 / RFU, LMF1 / Fold change vs veh, LMF1 / RFU, IPO11 / Fold change vs veh, IPO11 / RFU, DFFB / Fold change vs veh, DFFB / RFU, FOXP1 / Fold change vs veh, FOXP1 / RFU, CARD8 / Fold change vs veh, CARD8 / RFU, STRN3 / Fold change vs veh, STRN3 / RFU, ADK / Fold change vs veh, ADK / RFU, RASSF2 / Fold change vs veh, RASSF2 / RFU, WIPF1 / Fold change vs veh, WIPF1 / RFU, LARP1B / Fold change vs veh, LARP1B / RFU, RASA1 / Fold change vs veh, RASA1 / RFU, RB1 / Fold change vs veh, RB1 / RFU, PPFIA1 / Fold change vs veh, PPFIA1 / RFU, MAT2A / Fold change vs veh, MAT2A / RFU, CCT5 / Fold change vs veh, CCT5 / RFU, WDR92 / Fold change vs veh, WDR92 / RFU, CUX1 / Fold change vs veh, CUX1 / RFU, TTC7A / Fold change vs veh, TTC7A / RFU, TMEM135 / Fold change vs veh, TMEM135 / RFU, DEPTOR / Fold change vs veh, DEPTOR / RFU, CPM / Fold change vs veh, CPM / RFU, DNAJB6 / Fold change vs veh, DNAJB6 / RFU, CACNA2D3 / Fold change vs veh, CACNA2D3 / RFU, DTX4 / Fold change vs veh, DTX4 / RFU, TFCP2 / Fold change vs veh, TFCP2 / RFU, GMCL1 /// GMCL1P1 / Fold change vs veh, GMCL1 /// GMCL1P1 / RFU, AEBP2 / Fold change vs veh, AEBP2 / RFU, SNHG1 /// SNORD22 /// SNORD25 /// SNORD26 /// SNORD27 /// SNORD28 /// SNORD29 /// SNORD31 / Fold change vs veh, SNHG1 /// SNORD22 /// SNORD25 /// SNORD26 /// SNORD27 /// SNORD28 /// SNORD29 /// SNORD31 / Fold change (Aza/veh), C12orf56 (ProbeSet 11735607_a_at) / Fold change (ACY-1035/veh), C12orf56 (ProbeSet 11735607_a_at) / Fold change (Aza/veh), FGFR1OP (ProbeSet 11751329_s_at) / Fold change (ACY-1035/veh), FGFR1OP (ProbeSet 11751329_s_at) / Fold change (Aza/veh), VPS36 (ProbeSet 11739960_a_at) / Fold change (ACY-1035/veh), VPS36 (ProbeSet 11739960_a_at) / RFU SYPL1 (11715823_x_at) / Fold change /veh SYPL1 (11715823_x_at) / RFU IGFBP7 (11715501_s_at) / Fold change /veh IGFBP7 (11715501_s_at) / RFU REEP3 (11722064_at) / Fold change /veh REEP3 (11722064_at) / RFU IGLL1 (11728026_x_at) / Fold change /veh IGLL1 (11728026_x_at): dose or concentration left out as unconfirmed
Conditions: MV-4-11 cells, 48 hours

Which “Fold change /veh FAM26E (11764081_at)” value does the source give for Nc1ccc(-c2cccs2)cc1NC(=O)c1ccc2c(c1)cc(C1CC1)n2CCN1CCOCC1 [ACY-1035] here?
Its value is 0.88.
